In assay [1] the target is T1, SARS-CoV-2 3CL^pro (Severe acute respiratory syndrome coronavirus 2, UniProt P0DTD1). Nature of the assay: FRET assay, fluorogenic peptide cleavage. In kind it is biochemical. To be noted: read-out: % inhibition at 100 μmol/L.
Assay [2] has as its target T1, SARS-CoV-2 3CL^pro. Nature of the assay: FRET assay, fluorogenic peptide cleavage. In kind it is biochemical.

Here are results for 7 compounds from paper doi:10.1101/2023.08.28.23294750v1 (medrxiv, 2023).

Molecules are shown by their SMILES. Some results are limits rather than exact numbers.

In general, IC50 refers to the concentration at which inhibition is half-maximal.

In the case of `COc1c(O)cc(C(=O)O)cc1O` [M42M2, 4-O-methylgallic acid], on SARS-CoV-2 3CL^pro [1], the inhibition at 100 µM is under 50%.
In the case of `O=C(O)c1cc(O)c2c(c1)C(=O)c1cccc(O)c1C2=O` [compound 3, rhein], at SARS-CoV-2 3CL^pro [2], the IC50 came to 4.6 µM.
Still for that read-out and setting: next, `Cc1c(C(=O)O)c(O)cc2c1C(=O)c1c(O)cccc1C2=O` [compound 10, 3,8-dihydroxy-1-methylanthraquinone-2-carboxylic acid]: 37.2 µM.
Turning to `O=C1c2cccc(O)c2C(=O)c2c(O)cc(CO)cc21` [compound 11, aloe-emodin], at SARS-CoV-2 3CL^pro [1], the inhibition at 100 µM was under 50%.
On the same count and under the same terms, next, `O=C(O)c1cc(O)c(O)c(O)c1` [compound 42, gallic acid]: under 50%; `OCCc1ccc(O)c(O)c1` [hydroxytyrosol]: under 50%; `COc1cc([C@H]2OC[C@H]3[C@@H]2CO[C@H]3c2ccc(OC)c(OC)c2)ccc1O` [phillygenin]: under 50%.
